According to patent US20040057926A1, “Modulation of the immune response through the manipulation of arginine levels” (LSU Medical Center, priority 2002, published 2004):

Columns and labels:
purified T-cells = test: CD3ζ and phospho-CD3ζ expression in stimulated purified T-cells (flow cytometry); assay type: cell-based, human
Experimental: Peripheral blood mononuclear cells (PBMC) from normal donors were separated over Ficoll-Paque (Pharmacia Biotech, Uppsala, Sweden). PBMC were enriched over T-cell enrichment columns (R&D Systems, Minneapolis, Minn.). After 10 min. of incubation, the columns were washed and the obtained enriched T-cells were counted and tested for surface markers by flow cytometry. […].
Tissue culture dishes (100 mm) (Corning, N.Y.) were coated overnight at 4° C. with PBS containing 10 μg/ml of anti-CD3 (OKT-3 Ortho Pharmaceutical, Raritan, N.J.) and washed once with cold phosphate buffer saline (PBS). Two million purified T-cells were resuspended in complete RPMI-1640 (RPMI) containing approximately 1140 μM of L-arginine (BioWhittaker, Walkersville, Md.) or in RPMI-1640 without L-arginine (Arg-free-RPMI) (GIBCO, Invitrogen, Grand Island, N.Y.) containing 100 ng/ml of anti-CD28 (Becton Dickinson, San Jose, Calif.) and added to plates. Control media included RPMI without L-glutamine or […]. Unstimulated T-cells were placed in the same culture conditions as controls. […]
To determine CD3ζ expression, purified T-cells were incubated for 15 min at 4° C. with anti-CD3-FITC or the isotype control (Beckman-Coulter, Miami, Fla.) at 1 μg of antibody/10^6 cells. […] Fluorescence analysis was done using a Coulter-EPICS flow cytometer (Beckman-Coulter, Miami, Fla.).

CAT-1 = CAT-1 (Homo sapiens, UniProt P30825); conditions: read-out: Km for L-Arg; cited from earlier work
CAT-1, sequence (P30825 whole entry): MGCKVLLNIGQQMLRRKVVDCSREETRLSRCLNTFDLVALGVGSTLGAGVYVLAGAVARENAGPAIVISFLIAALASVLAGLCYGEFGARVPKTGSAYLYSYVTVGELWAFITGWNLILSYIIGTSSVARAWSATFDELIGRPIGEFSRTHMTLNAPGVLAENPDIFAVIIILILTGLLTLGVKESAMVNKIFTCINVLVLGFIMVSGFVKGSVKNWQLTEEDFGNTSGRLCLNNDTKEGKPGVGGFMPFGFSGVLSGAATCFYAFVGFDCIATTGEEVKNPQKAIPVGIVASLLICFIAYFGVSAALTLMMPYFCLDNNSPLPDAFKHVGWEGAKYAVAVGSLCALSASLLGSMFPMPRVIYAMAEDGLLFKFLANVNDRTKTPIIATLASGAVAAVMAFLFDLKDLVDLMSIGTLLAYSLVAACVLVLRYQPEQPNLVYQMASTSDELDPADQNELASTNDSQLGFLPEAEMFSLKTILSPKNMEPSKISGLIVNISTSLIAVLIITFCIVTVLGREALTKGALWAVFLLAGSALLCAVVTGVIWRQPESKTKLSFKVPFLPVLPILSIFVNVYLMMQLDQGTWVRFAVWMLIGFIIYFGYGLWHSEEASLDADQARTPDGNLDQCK

CAT-2B = CAT-2B (Homo sapiens, UniProt P52569); conditions: read-out: Km for L-Arg; cited from earlier work
CAT-2B, sequence (P52569 whole entry, species assumed): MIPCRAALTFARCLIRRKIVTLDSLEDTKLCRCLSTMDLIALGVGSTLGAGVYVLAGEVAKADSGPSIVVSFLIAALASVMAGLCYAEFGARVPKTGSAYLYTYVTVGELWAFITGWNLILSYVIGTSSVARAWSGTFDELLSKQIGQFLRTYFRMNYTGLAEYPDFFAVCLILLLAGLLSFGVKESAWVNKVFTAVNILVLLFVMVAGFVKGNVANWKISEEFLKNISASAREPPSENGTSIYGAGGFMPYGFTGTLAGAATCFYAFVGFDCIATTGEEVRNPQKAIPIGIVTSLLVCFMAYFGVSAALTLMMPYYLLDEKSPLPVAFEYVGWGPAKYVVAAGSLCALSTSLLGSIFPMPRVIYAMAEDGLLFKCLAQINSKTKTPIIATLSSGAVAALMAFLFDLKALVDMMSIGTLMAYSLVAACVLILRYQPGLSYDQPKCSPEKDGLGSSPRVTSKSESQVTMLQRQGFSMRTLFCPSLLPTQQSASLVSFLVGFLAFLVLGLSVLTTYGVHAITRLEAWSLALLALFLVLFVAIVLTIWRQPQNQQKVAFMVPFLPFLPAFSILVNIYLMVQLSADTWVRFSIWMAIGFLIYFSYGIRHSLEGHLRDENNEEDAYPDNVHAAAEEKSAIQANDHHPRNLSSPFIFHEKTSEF

T lymphocytes = test: Co-culture in transwells of stimulated PM and stimulated normal T lymphocytes, CD3ζ expression; assay type: cell-based, human
Experimental: T-cells were isolated from mononuclear cells of healthy donors by T-cell enrichment columns (R&D Systems, Minneapolis, Minn.) according to manufacturer specifications. T-cell purity (CD3+) ranged between 89-95%. The cycle of internalization and re-expression of the TCR-CD3 complex was induced by T-cell stimulation with 1 μg/ml of anti-CD3, 100 ng/ml of anti-CD28 (Becton Dickinson) and 10 μg/ml of goat anti-mouse IgG (KPL, Gaithersburg, Md.). Cells were stimulated in the absence of L-Arg and added to the co-cultures 24 h after stimulation.
PM were cultured in 6 well plates in RPMI containing 150 μM L-Arg and stimulated with murine rIL-4 (50 U/ml) and murine rIL-13 (50 ng/ml), or murine rIFN-γ (100 U/ml) for 24 hours. Then 1×10^6 normal T-cells stimulated with anti-CD3 plus anti-CD28 or 1×10^6 Jurkat cells, were cultured in the top chamber of a transwell system having 0.4 μm pores (Falcon, Franklin lakes, N.J.). CD3ζ expression was measured in Jurkat cells or T lymphocytes at different time points. PM were detached using trypsin/EDTA and the expression of protein and RNA for CAT-2B, ASE I, ASE II and iNOS was tested by western blot and northern blot respectively. Cytoplasmic extracts from PM were used to test ASE activity. Supernatants from stimulated PM were used to measure NO production using the Griess reagent method (Molecular Probes, Eugene, Oreg.). In addition, the extra-cellular concentration of L-Arg was tested in supernatants by HPLC (Dr. Gu Yao Wu laboratory, University of Texas) as described previously. O'Quinn, P. R., D. A. Knabe, and G. Wu. 2002. Arginine catabolism in lactating porcine mammary tissue. J Anim Sci. 80:467-474.
Flow cytometry analysis was performed as previously described. Taheri, F., J. B. Ochoa, Z. Faghiri, K. Culotta, H. J. Park, M. S. Lan, A. H. Zea, and A. C. Ochoa. 2001. […] Fluorescence acquisition and analysis were done using a Coulter-EPICS XL flow cytometer (Beckman-Coulter) with a 488 nm argon laser. The data were expressed as mean channel fluorescence intensity (MFI).

ASE = ASE activity assay (L-ornithine production) in PM lysates; assay type: biochemical, mice; conditions: NOHA 100 μM, Nor-NOHA 50 μM
Experimental: Cell lysates from PM stimulated with IL-4+IL-13 or IFN-γ were tested for ASE activity by measuring the production of L-ornithine. In brief, cell lysates from PM stimulated with IL-4+IL-13 or IFN-γ in the presence or absence of NOHA or Nor-NOHA were added to 50 μl of Tris-HCl (50 mM; pH 7.5) containing 10 mM MnCl2. This mixture was heated at 55-60° C. for 10 min to activate ASE. The hydrolysis reaction from L-Arg to L-ornithine was identified by a colorimetric assay after the addition of ninhydrin solution and incubation at 37° C. for 1 h.

H. pylori arginase = conditions: McGee, manuscript in preparation; cited from earlier work

| SMILES | re-expression of CD3ζ after addition of L-arginine to the culture media (purified T-cells; L-arginine 1140 μM, T-cells stimulated in Arg-free-RPMI) | L-Arg concentrations that impair the re-expression of CD3ζ chain (purified T-cells; stimulated T-cells, in vitro) | Km (CAT-1) [µM] | Km (CAT-2B) [µM] | CD3ζ in normal stimulated T lymphocytes co-cultured with IL-4+IL-13 activated PM (T lymphocytes) | intracellular ASE activity (ASE) | inhibition of H. pylori arginase (H. pylori arginase) |
| --- | --- | --- | --- | --- | --- | --- | --- |
| N=C(N)NCCC[C@H](N)C(=O)O [L-arginine] | rapid re-expression of CD3ζ | below 40 μM | 100 | 100 |  |  |  |
| NC(=NCCC[C@H](N)C(=O)O)NO [NOHA, NG-hydroxy-L-arginine] |  |  |  |  | prevented the loss of CD3ζ | blocked intracellular ASE activity | only partially inhibit H. pylori arginase |
